Source: US20200397795A1, “PROPHYLACTIC TREATMENT OF VENOUS THROMBOEMBOLISM” (JANSSEN PHARMACEUTICALS, INC., priority 2019, published 2020)

Test system: events prevented vs bleeding events caused
Assay type: in vivo, human
Source text: The same time period was utilized, preventing double counting for fatal bleeds, with all bleeds through Day 35 included (even if off treatment), and bleeding deaths were not counted as CV deaths. Using the primary endpoint, there would be 131 fewer events in the rivaroxaban group with a number-to-treat to benefit (NNT) of 77 to prevent one event, but this was counterbalanced by causing 51 more major bleeds. The benefit risk profile was improved in the subpopulation, with 182 events prevented and only 18 major bleeds caused, with NNT and number-to-treat to harm (NNH) of 55 and 560, respectively. […] More ischemic events were prevented than hemorrhagic events caused in the subpopulation in all five pairs of clinically meaningful endpoints which included asymptomatic and symptomatic VTE and VTE-related death, major bleeding, and fatal and irreversible thrombotic and bleed events. For 35 days of treatment, the number need to treat to prevent 1 event ranged from 55 to 481 for the 5 pairs, while the number needed to harm ranged from 455-1,067.

[1] = subpopulation, primary endpoint

Question: `O=C(NC[C@H]1CN(c2ccc(N3CCOCC3=O)cc2)C(=O)O1)c1ccc(Cl)s1` [Rivaroxaban, 5-chloro-N-({(5S)-2-oxo-3-[4-(3-oxo-4-morpholinyl)phenyl]-1,3,oxazolidin-5-yl}methyl)-2-thiophenecarboxamide] was tested. Which “Number-to-treat to benefit (NNT) to prevent one event” value (entire MAGELLAN population, primary endpoint) did it give?
Answer: 77

Question: What about the “Fewer primary endpoint events in the rivaroxaban group” value (entire MAGELLAN population, through Day 35) of the same compound?
Answer: 131 events

Question: What about the Major bleeds caused (human, in vivo, 35 day) of the same compound?
Answer: 18

Question: What about the “More major bleeds caused” value (human, in vivo, 35 day) of the same compound?
Answer: 51

Question: And the “Number needed to harm, range over 5 benefit-risk pairs” value (human, in vivo, 35 day)?
Answer: 455-1,067

Question: What about the “Number-to-treat to harm (NNH)” value (human, in vivo, 35 day) of the same compound?
Answer: 560

Question: And the Events prevented [1]?
Answer: 182 events

Question: What about the NNT [1] of the same compound?
Answer: 55
